The text below walks through data of US20050143296A1, “Extraction and utilization of cell growth-promoting peptides from silk protein” (priority 2003, published 2005).

Series [1] in a line: Dissolution of synthetic peptides in PBS for coating. The series is classed as physicochemical. The settings on record: about 1 mg peptide in 200 μl of PBS. The protocol:
About 1 mg each of the synthetic peptides was dissolved in 200 μl of PBS. The dissolved peptide solutions were diluted with 70% ethanol to adjust to 0.025% and 0.0025% concentrations, and 1 ml each of these solutions were put in dishes and dried.
70% ethanol, put in a dish and dried.

Series [2] relates to human skin fibroblasts. The series is described as follows: Growth of human skin fibroblasts in dishes coated with silk fractions or peptides (low serum medium with LSGS, Alamer Blue viable cell number). The series is classed as cell-based. The settings on record: for Growth rate (%): control = 100; for cell growth promotion (in words): human skin fibroblasts in coated dishes, compared to control without peptide. Here is the method:
Only 1 ml of 70% ethanol was added to dishes for control.
The cells used were human skin fibroblasts (originating from adult normal skin) purchased (frozen) from Sanko Junyaku Co., Ltd.
The medium was added at 2 ml per dish, and 80,000 cells were inoculated and cultured for 3 days.
The medium at 2 ml per dish and Alamer Blue (Iwaki Glass Co.) at 0.1 ml per dish were added and cultured for 2 hours at 37 degrees C., and then the reduced amount of Alamer Blue dye calculated from the absorbances at 570 nm and 600 nm was correlated with viable cell number.
Control dishes contained only 70% ethanol at 1 ml, followed by air-drying.
About 1 mg each of the synthetic peptides was dissolved in 200 μl of PBS.
The cells used were human skin fibroblasts (originating from adult normal skin) purchased (frozen) from Sanko Junyaku Co. Ltd.
The culture medium used was the low serum culture medium for human skin fibroblast growth purchased from Kurabo Industries Ltd.
The medium was added at 2 ml per dish, and ca. 80,000 cells were inoculated and cultured for 3 days.
Then, 0.1 ml of Alamer Blue (Iwaki Glass Co.) was added and cultured for 2 hours at 37 degrees C., and the reduced amount of Alamer Blue calculated from the absorbances at 570 nm and 600 nm was correlated with viable cell number.

In series [3] the test system is human skin fibroblasts. The series is described as follows: Adhesion of human skin fibroblasts after 5 hours in peptide-coated dishes (Medium 106S without LSGS). The format is cell-based. As to conditions: Table 8; 5 hour-culture; peptide 0.025 μg/cm^2; no LSGS; no peptide = 100. The protocol:
(§1) This method partly differs from the method in (3) Cell culture of Example 1.
(§2) In the present cell culture, the cells used were human skin fibroblasts (originating from adult normal skin) purchased (frozen) from Sanko Junyaku Co. Ltd.
(§3) The culture medium used was the low serum culture medium for human skin fibroblast growth purchased from Kurabo Industries Ltd. (Medium 106S 500 ml).
(§4) The medium 106S is a basal medium for skin fibroblasts.
(§5) LSGS (low serum growth supplement) was not used here.
In the measurement of adhesion, the cells floating in the medium at 5 hours after inoculation of cells into the medium were removed, and the viable cell number adhering to the bottom of a dish was measured.
(§6) Besides the cell culture method, coating of peptides on cell culture dishes, measurement of viable cell number with Alamer Blue dye, and the like were carried out as described in Example 1.
(§7) In this case, the concentration of each peptide coated on dishes was 0.025 μg/cm^2.
The adhesion rate (%) in the case where no peptide was coated was set at 100.

The subject of series [4] is human skin fibroblasts. The series is described as follows: Proliferation of human skin fibroblasts after 3-day culture in peptide-coated dishes (Medium 106S without LSGS). The format is cell-based. The settings on record: Table 9, peptide 0.025 μg/cm^2, no LSGS, no peptide = 100. The protocol:
as §1, §2, §3, §4, §5
In the measurement of proliferation, the viable cell number at 3 days after inoculation of cells into the medium was measured.
as §6, §7
The growth rate (%) in the case where no peptide was coated was set at 100.
It should be noted that the viable cell number in the control in 3-day culturing increased about 150% during the culture and the control value (100%) was based on the viable cell number after 3-day culture.
Accordingly, when there was no increase or decrease in the cell number after 3-day culturing, the growth rate would become about 70%.

For series [5], the system named is human skin fibroblasts. Put plainly: Growth of human skin fibroblasts in dishes coated with silk fractions or peptides (low serum medium with LSGS, Alamer Blue viable cell number). The format is cell-based. As to conditions: for Growth rate (%): Table 3, gel filtration peaks of A-6, cultured for 2 days, control = 100; for growth rate relative to the growth of the control: after 2-day culture (Table 3). Background: In gel filtration, larger molecules generally elute earlier.

[6] abbreviates: Table 7, peptide concentration 0.025 μg/cm^2, 3-day culture.
Where [7] appears, read: Table 5, synthetic peptide 0.0025%, 3-day culture.
Setting [8] is: Table 5, synthetic peptide 0.025%, 3-day culture.
The mark [9] stands for this setting: Table 6, values of Tables 4 and 5 at higher peptide concentration (0.025%).

“Also recorded” adds a separate entry of the source. Where a SMILES comes first, the peptide text is derived from it. Where no end group is shown, it is not given here.

As to `C[C@H](N)C(=O)N[C@@H](C)C(=O)N[C@@H](C)C(=O)N[C@@H](C)C(=O)N[C@@H](C)C(=O)N[C@@H](C)C(=O)N[C@@H](C)C(=O)N[C@@H](C)C(=O)N[C@@H](C)C(=O)N[C@@H](C)C(=O)O` [AfH0, Ala Ala Ala Ala Ala Ala Ala Ala Ala Ala], the “solubility (in words)” value in series [1] is “hard to dissolve”.

As for `N[C@@H](CCC(=O)O)C(=O)O` [Glu, glutamic acid, reference compound], the “Cell growth rate (%)” value in series [2] (setting [6]) came to 69%.

As for `C[C@H](NC(=O)CN)C(=O)NCC(=O)N[C@@H](C)C(=O)NCC(=O)N[C@@H](CO)C(=O)NCC(=O)N[C@@H](C)C(=O)NCC(=O)N[C@@H](C)C(=O)NCC(=O)N[C@@H](CO)C(=O)NCC(=O)N[C@@H](C)C(=O)NCC(=O)N[C@@H](C)C(=O)NCC(=O)N[C@@H](Cc1ccc(O)cc1)C(=O)NCC(=O)N[C@@H](C)C(=O)NCC(=O)N[C@@H](Cc1ccc(O)cc1)C(=O)O` [SfHC-1] (H-GAGAGSGAGAGSGAGAGYGAGY-OH; N-terminus and C-terminus assumed), the “solubility (in words)” value in series [1] is on record as “difficult to dissolve”.

As for `C[C@H](NC(=O)CN)C(=O)NCC(=O)N[C@@H](C)C(=O)NCC(=O)N[C@@H](CO)C(=O)NCC(=O)N[C@@H](C)C(=O)N[C@@H](C)C(=O)N[C@@H](CO)C(=O)NCC(=O)N[C@@H](C)C(=O)NCC(=O)N[C@@H](C)C(=O)NCC(=O)N[C@@H](C)C(=O)NCC(=O)N[C@@H](C)C(=O)NCC(=O)N[C@@H](C)C(=O)NCC(=O)N[C@H](C(=O)O)[C@@H](C)O` [SfHC-2] (H-GAGAGSGAASGAGAGAGAGAGT-OH; N-terminus and C-terminus assumed), in series [1], the “solubility (in words)” value is on record as “difficult to dissolve”.

For the compound `CC(C)[C@H](NC(=O)[C@H](CO)NC(=O)[C@H](CO)NC(=O)[C@H](C)NC(=O)[C@H](C)N)C(=O)N[C@@H](CO)C(=O)N[C@@H](CO)C(=O)N[C@@H](C)C(=O)N[C@@H](CO)C(=O)N[C@@H](CO)C(=O)N[C@@H](CCCNC(=N)N)C(=O)N[C@@H](CO)C(=O)N[C@@H](Cc1ccc(O)cc1)C(=O)N[C@@H](CC(=O)O)C(=O)N[C@@H](Cc1ccc(O)cc1)C(=O)N[C@@H](CO)C(=O)N[C@@H](CCCNC(=N)N)C(=O)N[C@@H](CCCNC(=N)N)C(=O)N[C@@H](CC(N)=O)C(=O)N[C@H](C(=O)N[C@@H](CCCNC(=N)N)C(=O)N[C@@H](CCCCN)C(=O)N[C@@H](CC(N)=O)C(=O)O)C(C)C` [SfHE] (H-AASSVSSASSRSYDYSRRNVRKN-OH; N-terminus and C-terminus assumed), in series [1], the “solubility (in words)” value is on record as “difficult to dissolve”.

With DDGFVLDGGYDSE [AfH7], in series [3], the “Adhesion rate (%)” value is given as 153%. Besides, the “Growth rate (%)” value in series [2] (setting [7]) turned out to be 155 ± 5.3%; in series [2] (setting [8]), 284 ± 25.1%; in series [4], 89%. The “Cell growth rate (%)” value in series [2] (setting [9]) stood at 284%. Also, the “cell growth promotion (in words)” value in series [2] is reported as “excellent cell growth promotion”.

Turning to DEDEDE, the “Adhesion rate (%)” value in series [3] is 229%. Also, the “Cell growth rate (%)” value in series [2] (setting [6]) is reported as 322%.

With DEYVDN [AfH5], the “Adhesion rate (%)” value in series [3] came out at 234%. For the same compound, the entries for the “Growth rate (%)” value in series [2] (setting [7]), in series [2] (setting [8]) and in series [4] were 192 ± 11.3%, 344 ± 7.7% and 108%, respectively. Also, the “Cell growth rate (%)” value in series [2] (setting [9]) amounted to 344%. In addition, in series [2], the “cell growth promotion (in words)” value was “excellent cell growth promotion”.

For EEEEEE, the “Cell growth rate (%)” value in series [2] (setting [6]) is reported as 346%.

With EEYEEY, in series [2] (setting [6]), the “Cell growth rate (%)” value worked out at 212%.

With EYEYEY, the “Cell growth rate (%)” value in series [2] (setting [6]) is given as 207%.

GSGAGGRGDGGYGSGSS [AfH3]: the “Adhesion rate (%)” value in series [3] is listed as 174%. For the same compound, the “Growth rate (%)” value was found to be 111 ± 9.0% in series [2] (setting [7]), 194 ± 24.5% in series [2] (setting [8]) and 69% in series [4]. Besides, the “Cell growth rate (%)” value in series [2] (setting [9]) is 194%.

As for GSSGFGPYVAHGGYSGYEYAWSSESDFGT [SfHA], in series [3], the “Adhesion rate (%)” value was determined as 205%. The “Growth rate (%)” value in series [2] (Table 4, synthetic peptide 0.0025%, 3-day culture) was found to be 321 ± 6.2%; in series [2] (Table 4, synthetic peptide 0.025%, 3-day culture), 316 ± 5.7%; in series [4], 159%. For the same compound, in series [2] (setting [9]), the “Cell growth rate (%)” value was found to be 316%.

Take Glu Glu: the “Cell growth rate (%)” value in series [2] (setting [6]) amounted to 159%.

Regarding “Glu Glu Glu Glu (EEEE; printed: Glu Glu Glu Glu)”, the “Cell growth rate (%)” value in series [2] (setting [6]) is 231%.

As for Glu Glu Glu Glu Glu Glu Glu Glu Glu Glu, the “Cell growth rate (%)” value in series [2] (setting [6]) worked out at 254%.

Turning to NINDFDED [A-6-6], the “cell growth promotion (in words)” value in series [2] is “showed cell growth promotion”. In series [5], the “Growth rate (%)” value is reported as 159 ± 6.6% and the “growth rate relative to the growth of the control” value came to 1.5 fold.

Consider RRAGHDRAAGS [AfH4], for which, in series [3], the “Adhesion rate (%)” value was 151%. The entries for the “Growth rate (%)” value in series [2] (setting [7]), in series [2] (setting [8]) and in series [4] were 113 ± 4.8%, 133 ± 8.7% and 96%, respectively. In addition, the “Cell growth rate (%)” value in series [2] (setting [9]) came to 133%.

Turning to SGAGGSGGYGGYGSDS [AfH2], in series [3], the “Adhesion rate (%)” value amounted to 149%. For the same compound, the “Growth rate (%)” value in series [2] (setting [7]) was 118 ± 14.7%; in series [2] (setting [8]), 196 ± 9.4%; in series [4], 71%. For the same compound, the “Cell growth rate (%)” value in series [2] (setting [9]) was found to be 196%.

As to Tyr Tyr, in series [2] (setting [6]), the “Cell growth rate (%)” value was found to be 113%.

Regarding “Tyr Tyr Tyr Tyr (YYYY; printed: Tyr Tyr Tyr Tyr)”, in series [2] (setting [6]), the “Cell growth rate (%)” value is recorded as 156%.

Turning to VETIVLEEDPYGHEDIYEED [AfH6], the “Adhesion rate (%)” value in series [3] is 135%. The “Growth rate (%)” value in series [2] (setting [7]) is 152 ± 9.0%; in series [2] (setting [8]) it was 264 ± 9.0%; in series [4] it was 77%. In series [2] (setting [9]), the “Cell growth rate (%)” value was found to be 264%. Moreover, in series [2], the “cell growth promotion (in words)” value is “higher cell growth promotion; also recorded: excellent cell growth promotion”.

With VITTDSDGNE [A-6-2], the “cell growth promotion (in words)” value in series [2] is recorded as “showed cell growth promotion”. Further, in series [5], the “Growth rate (%)” value came to 153 ± 2.7% and the “growth rate relative to the growth of the control” value stood at 1.5 fold.

With YGWGDGGYGSDS [AfH1], in series [3], the “Adhesion rate (%)” value was found to be 169%. Moreover, the entries for the “Growth rate (%)” value in series [2] (setting [7]), in series [2] (setting [8]) and in series [4] were 179 ± 13.5%, 396 ± 4.0% and 94%, respectively. In addition, the “Cell growth rate (%)” value in series [2] (setting [9]) came to 396%. Besides, in series [2], the “cell growth promotion (in words)” value is “excellent cell growth promotion”.

Turning to YYYYYY, the “Cell growth rate (%)” value in series [2] (setting [6]) came out at 239%.
